Patent US7875604B2, “Compounds that inhibit HIV particle formation” (University of Virginia Patent Foundation, priority 2004, dated 2011)

Columns and labels:
[1] = test system: U1 cells; test: MTS staining for cell viability in U1 cell assay; type: cell-based; settings: analogs, Table 8, MTS, read-out: TC50 (the source's name)
Method: (§1) At the time of the assay, cells were collected by centrifugation and counted by hemacytometer. If cell viability by Trypan Blue dye exclusion was less than 70% the assay was terminated. The cells were adjusted to 5×10^4 cells/mL and 100 μL placed in 96 well plates with 100 μL media containing a final concentration of 5 ng/mL TNF-α and the test compound. Cultures were incubated for 3 days and supernatants harvested. Compound toxicity was determined by MTS dye reduction. Virus expression was measured by supernatant reverse transcriptase activity.
At assay termination, the assay plates were stained with the soluble tetrazolium-based dye MTS (CellTiter 96 Reagent, Promega) to determine cell viability and quantify compound toxicity as described for the PBMC assay.
(§2) Compounds were tested in the U1 latency assay using the maximum high-test concentration possible based on the supplied stocks which are listed in table 3. Compounds were tested using the maximum high-test concentration possible based on the supplied stocks. Compounds were prepared at a 2× high-test concentration by combining drug stock with tissue culture media at a ratio of 5 μL of drug to 995 μL of media. This 2× high-test sample was subsequently serially diluted in tissue culture media using 1/2 log dilutions. This series of 2× concentrated drug was subsequently diluted 1:1 by combining with an equal volume of cells in media in the 96-well plates used for the assay. Temacrazine a known inhibitor of HIV transcription was used as a control compound that is active in the post-integration part of the HIV life cycle.
(§3) Compounds were tested using the maximum high-test concentration possible based on the supplied stocks. Compounds were prepared at a 2× high-test concentration by combining drug stock with tissue culture media at a ratio of 5 μL of drug to 995 μL of media. This 2× high-test (HT) sample was subsequently serially diluted in tissue culture media using 1/2 log dilutions. This series of 2× concentrated drug was subsequently diluted 1:1 by combining with an equal volume of cells in media in the 96-well plates used for the assay.

[2] = test system: U1 cells latently infected with HIV-1; test: U1 latency activation assay (TNF-α induced, supernatant reverse transcriptase); type: cell-based; settings: U1 cell assay, analogs, Table 8
Method: U1 cells were obtained from the AIDS Research and Reference Reagent Program and maintained under standard culture conditions in RPMI 1640 supplemented with 10% fetal bovine serum (heat inactivated), 2 mM L-glutamine, 100 U/mL penicillin and 100 μg/mL streptomycin. U1 cells are derived from the histocytic leukemia cell line U937, and contain an integrated copy of a cytokine and/or phorbol inducible provirus (HIV-1IIIB). Cultures were maintained in such a way as to ensure exponential growth of the populations. Addition of TNF-α to the cell culture induces HIV-1, so that inhibition of virus production indicates an inhibition of a post-integration function of the HIV-1 life cycle. This is where an inhibitor of Rev function would be expected to act. […]
as §1
Reverse transcriptase was assayed to measure virus particle release as described above for the PBMC assay.
as §2, §3

SMILES	CC50 [1]	IC50 [2]
O=C(NCc1ccccn1)c1cc(Cl)nnc1Cl [Compound 515]	> 75 µM	13.6 µM
Cc1ccc(-c2cc(-c3ccccc3)nc3sc(C(N)=O)c(N)c23)cc1 [Compound 323]	22.6 µM	0.745 µM
COc1ccc(-c2c(C(C)=O)c(C)nc3sc(C(N)=O)c(N)c23)cc1 [Compound 311]	> 75 µM	1.65 µM
CC(=O)c1ccc(Nc2nc(-c3ccccc3)nc3ccccc23)cc1 [Compound 755]	> 75 µM	1.78 µM
NC(=O)c1sc2nc(-c3cccnc3)ccc2c1N [Compound 316]	> 75 µM	23.4 µM
Cc1ccc(NC(=O)c2sc(Cl)nc2C)cc1 [Compound 417]	51.9 µM	1.62 µM
COc1ccc(-c2cc(-c3ccccc3)nc3sc(C(N)=O)c(N)c23)cc1 [Compound 335]	53.9 µM	1.41 µM
O=C(c1cc(Cl)nnc1Cl)N1CCCC1 [Compound 514]	> 75 µM	> 75 µM
COc1ccc(-c2cnc(OC(C)(C)C)nc2OC(C)(C)C)cc1 [Compound 618]	53.6 µM	18.3 µM
COC(=O)c1ccc(Nc2nc(-c3ccccc3Cl)nc3ccccc23)cc1 [Compound 728]	17.5 µM	13.4 µM
NC(=O)c1sc2nc(-c3cccs3)cc(-c3ccc(F)cc3)c2c1N [Compound 322]	17.4 µM	8.84 µM
Cc1nc(Oc2ccccc2)c2ccccc2n1 [Compound 756]	52 µM	1.74 µM
Cc1cc2c(N)c(C(N)=O)sc2nc1C [Compound 328]	37 µM	1.06 µM
O=C(Nc1cccc(F)c1)c1sc(Cl)nc1C(F)(F)F [Compound 413]	50.7 µM	20.7 µM
Cc1ccc(Nc2ncnc3ccccc23)cc1C [Compound 719]	> 75 µM	1.73 µM
Cc1ccc(NC(=O)c2sc(Cl)nc2-c2ccccc2)cc1C [Compound 422]	> 75 µM	14.3 µM
Oc1ccccc1-c1nc(Nc2ccc(F)c(F)c2)c2ccccc2n1 [Compound 750]	> 75 µM	> 75 µM

SMILES	CC50 [1]	IC50 [2]
O=C(c1cc(Cl)nnc1Cl)N1CCOCC1 [Compound 512]	> 75 µM	26.3 µM
O=C(Nc1ccccc1)c1sc(Cl)nc1C(F)(F)F [Compound 412]	51.7 µM	16.7 µM
CC1CCc2nc3sc(C(N)=O)c(N)c3cc2C1 (centres unmarked) [Compound 336]	> 75 µM	2.92 µM
Cc1ccc2c(N)c(C(N)=O)sc2n1 [Compound 314]	> 75 µM	2.11 µM
CN1CCN(C(=O)c2cc(Cl)nnc2Cl)CC1 [Compound 513]	> 75 µM	7.05 µM
COc1ccccc1NC(=O)c1cc(Cl)nnc1Cl [Compound 511]	17.3 µM	14.3 µM
CCOC(=O)c1ccc(Nc2ncnc3ccccc23)cc1 [Compound 720]	> 75 µM	3.66 µM
CCOC(=O)c1c2c(nc3sc(C(N)=O)c(N)c13)CCCC2 [Compound 327]	65.8 µM	0.601 µM
CN(C)c1ccnc2sc(C(N)=O)c(N)c12 [Compound 325]	> 75 µM	0.281 µM
Cc1ccc(NC(=O)c2sc(Cl)nc2-c2ccccc2)c(C)c1 [Compound 423]	> 75 µM	42.4 µM
Cc1n[nH]c2nc3ccc(Br)cc3c(-c3ccccc3)c12 [Compound 112]	> 50 µM	1.08 µM
Clc1ccccc1Nc1nc(-c2ccc(Br)cc2)nc2ccccc12 [Compound 731]	> 75 µM	1.65 µM
NC(=O)c1sc2nc3c(cc2c1N)CCC3 [Compound 324]	> 75 µM	2.19 µM
Nc1c2c(nc3ccc([N+](=O)[O-])cc13)CCCC2=O [Compound 213]	58.6 µM	0.826 µM
Cc1nc2sc(C(N)=O)c(N)c2c(C)c1CC(=O)c1ccccc1 [Compound 315]	> 75 µM	0.75 µM
Cc1cc(C(F)(F)F)c2c(N)c(C(N)=O)sc2n1 [Compound 318]	> 75 µM	< 0.237 µM
Clc1ccc(-c2nc(Nc3ccc(Oc4ccccc4)cc3)c3ccccc3n2)cc1 [Compound 753]	48 µM	47.1 µM
